Columns and labels:
Mus musculus [1] = species: Mus musculus; assay: Reduction in serum uric acid level in acute hyperuricemia state Kunming mouse model assessed as SUA level; type: functional
[2] = target: T1, Solute carrier family 22 member 12 (Homo sapiens, UniProt Q96S37); assay: Inhibition of human URAT1 expressed in HEK293T cells using 14C- uric acid assessed as uric acid absorption by measuring intracellular liquid radiation value by liquid scintillation counting analysis; type: cell-based
T1 sequence (Q96S37 whole entry): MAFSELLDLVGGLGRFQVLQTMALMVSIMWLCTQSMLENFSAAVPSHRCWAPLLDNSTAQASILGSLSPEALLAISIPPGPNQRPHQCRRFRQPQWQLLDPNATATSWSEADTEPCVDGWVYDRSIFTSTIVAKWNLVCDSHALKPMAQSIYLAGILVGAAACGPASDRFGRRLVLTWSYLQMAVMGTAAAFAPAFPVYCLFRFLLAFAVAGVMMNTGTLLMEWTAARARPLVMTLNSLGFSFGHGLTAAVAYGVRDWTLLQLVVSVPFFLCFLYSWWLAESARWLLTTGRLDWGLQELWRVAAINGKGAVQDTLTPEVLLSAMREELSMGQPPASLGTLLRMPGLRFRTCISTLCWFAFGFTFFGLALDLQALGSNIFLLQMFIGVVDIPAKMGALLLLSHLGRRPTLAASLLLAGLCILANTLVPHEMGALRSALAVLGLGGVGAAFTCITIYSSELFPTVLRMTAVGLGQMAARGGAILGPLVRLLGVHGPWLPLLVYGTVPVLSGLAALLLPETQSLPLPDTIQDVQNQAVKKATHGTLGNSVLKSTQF

Mus musculus [3] = assay: Reduction in serum uric acid level in acute hyperuricemia state Kunming mouse model assessed as SUA level at 1 mg/kg, po (reference value: 1037 +/- 106.59 uM); type: functional
Mus musculus [4] = assay: Reduction in serum uric acid level in acute hyperuricemia state Kunming mouse model assessed as SUA level by measuring decrease ratio at 1 mg/kg, po relative to control; type: functional; parameters: scale not given: the % may be the effect or the level left
Mus musculus [5] = assay: Reduction in serum uric acid level in acute hyperuricemia state Kunming mouse model assessed as SUA level by measuring decrease ratio at 0.5 mg/kg, po relative to control; type: functional; parameters: scale not given: the % may be the effect or the level left
Rattus norvegicus = assay: Reduction in serum uric acid level in po dosed acute hyperuricemia state Sprague-Dawley rat model assessed as SUA level by measuring decrease ratio relative to control; type: functional; parameters: scale not given: the % may be the effect or the level left
Mus musculus [6] = species: Mus musculus; assay: Reduction in serum uric acid level in chronic hyperuricemia state Kunming mouse model assessed as SUA level (reference value: 660.33 +/- 103.57 uM); type: functional
Mus musculus [7] = species: Mus musculus; assay: Reduction in serum uric acid level in chronic hyperuricemia state Kunming mouse model assessed as SUA level by measuring decrease ratio relative to control; type: functional; parameters: scale not given: the % may be the effect or the level left
Cytochrome P450 3A4 = Cytochrome P450 3A4 (Homo sapiens, UniProt P08684); assay: Inhibition of CYP3A4 in human liver microsomes using midazolam measured after 40 mins incubation by LC-MS/MS analysis; type: ADME, Microsome
[8] = MRT (0 to infinity) in Sprague-Dawley rat at 2 mg/kg, po measured upto 24 hrs by LC-MS/MS-AR analysis; type: ADME, organism-based; conditions: in vivo
[9] = Half life in Sprague-Dawley rat at 2 mg/kg, po measured upto 24 hrs by LC-MS/MS-AR analysis; type: ADME, organism-based; conditions: in vivo
[10] = AUC (0 to infinity) in Sprague-Dawley rat at 2 mg/kg, iv measured upto 24 hrs by LC-MS/MS-AR analysis; type: ADME, organism-based; conditions: in vivo
[11] = MRT (0 to infinity) in Sprague-Dawley rat at 2 mg/kg, iv measured upto 24 hrs by LC-MS/MS-AR analysis; type: ADME, organism-based; conditions: in vivo
[12] = Tmax in Sprague-Dawley rat at 2 mg/kg, iv measured upto 24 hrs by LC-MS/MS-AR analysis; type: ADME, organism-based; conditions: in vivo
[13] = Cmax in Sprague-Dawley rat at 2 mg/kg, iv measured upto 24 hrs by LC-MS/MS-AR analysis; type: ADME, organism-based; conditions: in vivo
[14] = Acute toxicity in Kunming mouse assessed as lethargy at 250 to 1000 mg/kg, po administered as single dose monitored for 7 days; type: organism-based; conditions: in vivo, 168 h, dose 250-1000 mg/kg, time 7 day
[15] = Acute toxicity in Kunming mouse assessed as anorexia at 250 to 1000 mg/kg, po administered as single dose monitored for 7 days; type: organism-based; conditions: in vivo, 168 h, dose 250-1000 mg/kg, time 7 day
[16] = Acute toxicity in Kunming mouse assessed as change in body weight at 250 to 1000 mg/kg, po administered as single dose monitored for 7 days; type: organism-based; conditions: in vivo, 168 h, dose 250-1000 mg/kg, time 7 day
[17] = Subacute toxicity in Kunming mouse assessed as abnormal behavior at 100 mg/kg, po administered every other day for 14 days; type: organism-based; conditions: in vivo, 336 h, time 14 day
[18] = Subacute toxicity in Kunming male mouse assessed as change in body weight at 100 mg/kg, po administered every other day for 14 days; type: organism-based; conditions: in vivo, 336 h, time 14 day
[19] = Subacute toxicity in Kunming female mouse assessed as change in body weight at 100 mg/kg, po administered every other day for 14 days; type: organism-based; conditions: in vivo, 336 h, time 14 day
[20] = Toxicity in Kunming female mouse assessed as pathological changes at 100 mg/kg, po administered every other day for 14 days by H and E staining based assay; type: organism-based; conditions: in vivo, 336 h, time 14 day
[21] = Toxicity in Kunming female mouse assessed as renal injury at 100 mg/kg, po administered every other day for 14 days by H and E staining based assay; type: organism-based; conditions: in vivo, 336 h, time 14 day
[22] = Toxicity in Kunming female mouse assessed as coagulation necrosis of hepatocyte at 100 mg/kg, po administered every other day for 14 days by H and E staining based assay; type: organism-based; conditions: 336 h, time 14 day

Sequence of Cytochrome P450 3A4 (P08684 whole entry): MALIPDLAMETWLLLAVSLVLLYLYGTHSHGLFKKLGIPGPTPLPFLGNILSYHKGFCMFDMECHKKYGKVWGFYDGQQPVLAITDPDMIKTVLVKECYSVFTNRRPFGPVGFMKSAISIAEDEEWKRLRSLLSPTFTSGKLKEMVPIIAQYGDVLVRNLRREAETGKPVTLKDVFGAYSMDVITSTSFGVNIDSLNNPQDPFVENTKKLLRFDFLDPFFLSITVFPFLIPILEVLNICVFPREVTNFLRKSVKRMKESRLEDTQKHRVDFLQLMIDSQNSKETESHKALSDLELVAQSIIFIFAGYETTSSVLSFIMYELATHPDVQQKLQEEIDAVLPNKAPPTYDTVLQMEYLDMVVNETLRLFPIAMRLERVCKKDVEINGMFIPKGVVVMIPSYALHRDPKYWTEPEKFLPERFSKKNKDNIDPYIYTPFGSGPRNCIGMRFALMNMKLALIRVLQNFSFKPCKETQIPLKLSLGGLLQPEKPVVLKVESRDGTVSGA

Compound `O=C(O)CCCSc1nc(Nc2ccc(C3CC3)c3ccccc23)c2sccc2n1` has an Activity (Mus musculus [1]) of 191.6 µM, an IC50 [2] of 2.01 µM and an Activity (Mus musculus [3]) of 208.6 µM. It also gave an Activity (Mus musculus [4]) of 89.08%, an Activity (Mus musculus [5]) of 66.49% and an Activity (Rattus norvegicus) of 90.12%. For the same compound, the Activity (Mus musculus [6]) was 241 µM, the Activity (Mus musculus [7]) was 76.33% and the IC50 (Cytochrome P450 3A4) was > 20 µM. The MRT inf [8] was 2.5 h, the half-life [9] was 1.8 h and the AUC [10] was 1922.9 ng·h/mL. The MRT inf [11] was 0.5 h, the Tmax [12] was 4.98 min and the Cmax [13] was 6590 ng/mL. For the same compound, the Activity [14] was “Non-Toxic”, the Activity [15] was “Non-Toxic” and the Activity [16] was “Toxic”. For the same compound, the Activity [17] was “Non-Toxic”, the Activity [18] was “Toxic” and the Activity [19] was “Toxic”. The Activity [20] was “Non-Toxic”, the Activity [21] was “Toxic” and the Activity [22] was “Non-Toxic”.

Source: ChEMBL document CHEMBL5528083, “Discovery of a Novel Thienopyrimidine Compound as a Urate Transporter 1 and Glucose Transporter 9 Dual Inhibitor with Improved Efficacy and Favorable Druggability” (J Med Chem, 2024)
